Test results: patent publication US10494417B2, “Peptide inhibitors of BCR-ABL oligomerization” (University of Utah Research Foundation, priority 2014, dated 2019)
Entries after “also recorded” stand apart in the source; their conditions may differ.

How the values were obtained:
[1] = tested on: K562 cells; assay: Colony forming assay of transfected K562 cells; format: cell-based, human; settings: for colony formation (transformative ability), in words: construct delivered as a gene by transfection, vs EGFP (and WT) control
Protocol: Both EGFP and EGFP-CC^mut3 were transfected into separate groups of cells on day 0. One day following transfection, 1.0×10^6 cells per treatment group were collected and re-suspended in 1.0 mL of PBS. Through serial dilutions, 1.0×10^3 cells in IMDM (Isocove's modified Dulbecco's media) with 2% FBS were seeded into methylcellulose medium in the absence of cytokines (MethoCult H4230 for K562 cells and MethoCult M3234 for p210 and p210-T315I cells) or in the presence of cytokines (MethoCult GF M3434 for parental Ba/F3 cells). Ponatinib was then added in the correct molar amounts (0, 100 pM, 1 nM, or 10 nM) to the methylcellulose medium. Colonies formed were counted after 7 days of incubation. All reagents were purchased from Stem Cell Technologies, Vancouver, BC, Canada. Assay was run three separate times (n=3) in duplicate.
(§1) Briefly, K562 or Ba/F3-p210 cells were transfected according to the protocol above. One day following transfection, 1.0×10^6 cells per transfection group were collected and re-suspended in sterile PBS. […] Finally, 1.1 mL of cell/methylcellulose mixture was seeded in duplicate and allowed to grow at 37° C. and 5% CO2 for 7 days. Colony formation was assessed by counting colonies in two 200 μm2 areas on the plate. Experiments were performed once in duplicate (n=1 in duplicate). All kit reagents and media were purchased from Stem Cell Technologies (Vancouver, BC, Canada).

[2] = tested on: CML CD34+ cells expressing BCR-ABL1T315I; assay: Liquid culture of primary T315I CML cells; format: cell-based, human; settings: CC^mut3 or increasing concentrations of ponatinib (FIG. 28C)
Protocol: Cell proliferation was assessed using the CellTiter 96® AQueous One Solution Cell Proliferation Assay (MTS assay, Promega) according to manufacturer instructions. Briefly, 5,000 viable cells were added to a single well in 96-well plate in 100 μL RPMI1640. Three independent samples were seeded in duplicate for each time point. […] In some experiments, cell proliferation was assessed using a Neubauer chamber and trypan blue dye exclusion.

[3] = tested on: CML CD34+ cells expressing BCR-ABL1T315I; assay: Colony forming assay of primary CML CD34+ cells expressing BCR-ABL1T315I (samples R1, R2); format: cell-based, human; settings: sample R1 (accelerated phase); lentiviral CCmut3 or 10 nM ponatinib vs EV
Protocol: Mononuclear cells (MNCs) were separated from the peripheral blood of patients with newly diagnosed or therapy-resistant CML with a documented T315I mutation, using Ficoll (Nycomed, Oslo, Norway). Isolation of the CD34^+ fraction was done on an autoMACS Pro (Miltenyi Biotech). […] Cells were infected with lentivirus at a multiplicity of infection (MOI) of 5 for each construct at 24 and 48 hours following harvest (fresh cells) or thaw (frozen cells). Cells were sorted on a BD FACSAria cytometer after 72 h, and GFP-positive cells were returned to culture medium for future experiments. All patients gave their informed consent in accordance with the Declaration of Helsinki, and all studies with human specimens were approved by The University of Utah Institutional Review Board (IRB).
Briefly, lentivirus-infected (GFP^+) cells were isolated by FACS and resuspended in RPMI1640. […] Plates were incubated at 37° C. in a 5% CO2 humidified incubator for 14 days. Colony forming units of granulocyte-macrophage (CFU-GM) were counted on day 14 using an inverted microscope.
All cells were plated with or without the indicated TKI in three or more independent experiments. Plates were incubated at 37° C. in a 5% CO2 humidified incubator. Colonies were counted 7-14 days later in an area of 50 μm2 per dish using an inverted microscope.

[4] = Phase III trial for first-line therapy in CML patients, discontinued; cited from earlier work
[5] = tested on: K562 cells; assay: Nuclear (DNA) segmentation apoptosis assay in transfected K562 cells; format: cell-based, human; settings: 48 h, vs EGFP control
Protocol: CC^mut3 was then tested for its ability to induce apoptosis in K562 cells. Apoptosis was observed using 3 different methods: 1) nuclear segmentation; 2) induction of the effector Caspase-3/7; and 3) 7AAD/Annexin V staining.
Nuclear segmentation analysis was performed as previously described (16). Briefly, immediately prior to cellular analysis, 2-well live cell chambers were treated for 15 min with poly-L-lysine (Sigma-Aldrich, St. Louis, Mo., USA), to allow cell adhesion in the wells. Forty-eight h following transfection, the transfected K562 cells were transferred to the pretreated 2-well live cell chambers. Cells were incubated for 15 min at 37° C. following the addition of 0.3 μL Hoechst H33342 nuclear stain (Life Technologies, Carlsbad, Calif., USA). Cells were then imaged using an inverted fluorescence microscope (Olympus IX701F, Scientific Instrument Co., Sunnyvale, Calif., USA) equipped with an F-view Monochrome CCD camera. Fields of view were selected based on EGFP fluorescence when viewing using a 40× oil immersion objective. Nuclei from cells that were positively transfected (positive for EGFP fluorescence) were categorized as either healthy (round or kidney-shaped nuclei) or segmented (punctate staining of nuclei), and the percentage of cells with segmented DNA was calculated (n=3 in replicate).

[6] = tested on: CD34+ cells from newly diagnosed CML patients; assay: Colony forming assay of CD34+ cells from newly diagnosed CML patients; format: cell-based, human; settings: day 14 CFU-GM; lentiviral CCmut3 or 2.5 μM imatinib vs EV
Protocol: Primary cells were seeded in Methocult H4230 (Stem Cell Technologies) as described previously (Fleischman, A. G., et al. (2011). Blood 118, 6392-6398). Briefly, lentivirus-infected (GFP^+) cells were isolated by FACS and resuspended in RPMI1640. Cells were plated in Methocult H4230 at 1,000 cells/mL supplemented with 1× StemSpan CC100 cytokine mix (StemCell Technologies) with or without TKI as indicated in each experiment. Plates were incubated at 37° C. in a 5% CO2 humidified incubator for 14 days. Colony forming units of granulocyte-macrophage (CFU-GM) were counted on day 14 using an inverted microscope.
Following selection of transfected cells by cell sorting, methylcellulose colony assays were performed by plating in 0.9% methylcellulose (Stem Cell Technologies; M3234 for Ba/F3 BCR-ABL1 native and mutant lines; M3434 for Ba/F3 parental cells; H4230 for CML patient samples). mCherry-positive Ba/F3 cells (1.1×10^3 cells/plate) or GFP-positive primary CML CD34+ cells (1×10^3 cells/plate) were seeded per dish in duplicate. In the case of CML patient samples, cells were plated in the presence of 1× StemSpan CC100 cytokine cocktail (StemCell Technologies). All cells were plated with or without the indicated TKI in three or more independent experiments. Plates were incubated at 37° C. in a 5% CO2 humidified incubator. Colonies were counted 7-14 days later in an area of 50 μm2 per dish using an inverted microscope.

[7] = tested on: K562 cells; assay: Proliferation/viability of transfected K562 cells (trypan blue exclusion); format: cell-based, human; settings: 72 h following transfection, trypan blue exclusion, vs mCherry control, n=1
Protocol: K562 cells, human leukemia Bcr-Abl^+ cells (gifted from Kojo Elenitoba-Johnson, University of Michigan), were grown in RPMI 1640 media supplemented with 10% FBS, 1% penicillin-streptomycin-glutamine, and 0.1% gentamicin (complete medium). […] Transfections were carried out two days following cell passaging. Then, 2.0×10^6 cells were collected and transfected with 6 μg pf pEGFP, pEGFP-CC^mut3, pmCherry, or pmCherry-CC^mut3 according to the Cell Line Nucleofector Kit V protocol, program T-013, using the Amaxa Nucleofector II (Lonza Group, Basel, Switzerland).
Cell counts were performed using a standard light microscope.
Two days following cell passaging, 2.0×10^6 cells were collected by centrifugation at 500×g for 10 min for each transfection group. Following cell collection, 6 lig DNA (pEGFP, pEGFP-CC, pEGFP-CCmut3, pEGFP-Helix2WT, pEGFP-Helix2mut3, pmCherry, pmCherry-CCmut3, or pmCherry-CappedHelix2mut3) was transfected into cells according to the Cell Line Nucleofector® Kit V protocol (program T-013) using the Amaxa Nucleofector II (Lonza Group, Basel, Switzerland). Following transfection, the DNA/cell mixture was added to 10 mL Complete RPMI 1640 media and allowed to incubate at 37° C. for 24, 48, or 72 h until analysis, depending on the assay.
(§2) Forty-eight or 72 h following transfection, 100 μL of treated K562 or Ba/F3-p210 cells was mixed with 100 μL trypan blue solution (Life Technologies). The numbers of viable cells (those impermeable to the trypan blue dye) from four different quadrants in an INCYTO™ C-CHIP™ Neubauer hemacytometer (VWR International, Radnor, Pa., USA) were counted using a standard light microscope. Quadrant counts were then averaged to obtain the number of viable cells per mL. For experiments using the Helix2mut3 construct, counts were performed on one aliquot per transfection (n=3 in replicate). In experiments involving the CappedHelix2mut3 construct, counts were performed three times using separate 100 pt aliquots from one transfection (n=1 in triplicate).

[8] = tested on: Ba/F3 cells expressing native BCR-ABL1 (Ba/F3-p210); assay: Colony forming assay of transfected Ba/F3-p210 cells; format: cell-based, mouse; settings: cappedHelix2mut3 study, n=1, data not shown
Protocol: as §1

[9] = tested on: Ba/F3-P210 cells; assay: Viability of transfected Ba/F3-p210 cells (trypan blue exclusion); format: cell-based, mouse; settings: 72 h following transfection, vs mCherry control, n=1
Protocol: Two days following cell passaging, 3.0×10^6 cells were collected by centrifugation at 750×g for 10 min for each transfection group. Following collection, 4 μg DNA was transfected into cells according to the Cell Line Nucleofector® Kit V protocol (program X-001) using the Amaxa Nuelcofector II. Following nucleofection, the DNA/cell mixture was added to 500 μL plain RPMI and incubated for 20 min. After incubation, the 500 μL cell/DNA/RPMI mixture was added to complete RPMI 1640 media and allowed to incubate at 37° C. for 72 h until analysis.
as §2

helix2 domain: helix2 domain (amino acids 28-67) with the CC^mut3 mutations, delivered as a gene via nucleofection (MELRSVGDIEQELERAEARIRRDEQRVNQERFRMIYLETLLAKEKKSYDR)
colony formation (transformative ability), in words [1]: sufficient to inhibit colony formation in K562 cells

Cc1ccc(C(=O)Nc2ccc(CN3CCN(C)CC3)c(C(F)(F)F)c2)cc1C#Cc1cnc2cccnn12 [ponatinib, 3-[2-(imidazo[1,2-b]pyridazin-3-yl)ethynyl]-4-methyl-N-{4-[(4-methylpi-perazin-1-yl)methyl]-3-(trifluoromethyl)phenyl}benzamide, reference compound]
effect in liquid culture [2]: no effect
reduction of colony formation [3]: 47%
patients with serious side effects [4]: ~12%

Helix2mut3: residues 23-72: α-helix2 of BCR-ABL CC domain plus five flanking residues each end, with CCmut3 mutations (MELRSVGDIEQELERAEARIRRDEQRVNQERFRMIYLETLLAKEKKSYDR)
induction of apoptosis (nuclear/DNA segmentation) [5]: outperformed negative control EGFP; also recorded: statistically significant increase in apoptosis; also recorded: apoptosis was induced to a similar extent between both CCmut3 and Helix2mut3; also recorded: significantly induced apoptosis
colony formation, of EGFP control ([1]; 7 days after seeding, normalized to EGFP control, n=1 in duplicate): approximately 67%
colony formation (transformative ability), in words [1]: outperformed negative control EGFP; also recorded: showed inhibitory activity; also recorded: prevented outgrowth of colonies to a greater extent than the EGFP control, however, not as well as the full length CCmut3

Cc1ccc(NC(=O)c2ccc(CN3CCN(C)CC3)cc2)cc1Nc1nccc(-c2cccnc2)n1 [imatinib, reference compound]
colony formation, in words [6]: equally effective in reducing colony number

cappedHelix2mut3: residues 27-68: α-helix2 of BCR-ABL CC domain with capping residues S27 and G68 and CCmut3 mutations (SVGDIEQELERAEARIRRDEQRVNQERFRMIYLETLLAKEKG)
proliferation/viability of K562 cells [7]: failed to out-perform the negative control; also recorded: did not display inhibition of cell proliferation; also recorded: no evidence of BCR-ABL inhibition
colony formation ([1]; cappedHelix2mut3 study, n=1, data not shown): failed to out-perform the negative control; also recorded: same pattern as in the cell proliferation studies
colony formation [8]: same pattern as in the cell proliferation studies
proliferation/viability of Ba/F3-p210 cells [9]: replicated to a similar extent; also recorded: no evidence of BCR-ABL inhibition
